The values below come from publication PMC7390918, “NVP-CGM097, an HDM2 Inhibitor, Antagonizes ATP-Binding Cassette Subfamily B Member 1-Mediated Drug Resistance” (Frontiers in Oncology, 2020).

By pEC50 is commonly meant −log10 of the EC50, conventionally taken in molar units. A high value points to a small EC50.

The target of series [1] is T1, ABCB1 (Homo sapiens, UniProt P08183).
For series [2], the target named is T1, ABCB1. The series is described as follows: biochemical.

pEC50: −log10 of the molar value.

T1 sequence (P08183 whole entry): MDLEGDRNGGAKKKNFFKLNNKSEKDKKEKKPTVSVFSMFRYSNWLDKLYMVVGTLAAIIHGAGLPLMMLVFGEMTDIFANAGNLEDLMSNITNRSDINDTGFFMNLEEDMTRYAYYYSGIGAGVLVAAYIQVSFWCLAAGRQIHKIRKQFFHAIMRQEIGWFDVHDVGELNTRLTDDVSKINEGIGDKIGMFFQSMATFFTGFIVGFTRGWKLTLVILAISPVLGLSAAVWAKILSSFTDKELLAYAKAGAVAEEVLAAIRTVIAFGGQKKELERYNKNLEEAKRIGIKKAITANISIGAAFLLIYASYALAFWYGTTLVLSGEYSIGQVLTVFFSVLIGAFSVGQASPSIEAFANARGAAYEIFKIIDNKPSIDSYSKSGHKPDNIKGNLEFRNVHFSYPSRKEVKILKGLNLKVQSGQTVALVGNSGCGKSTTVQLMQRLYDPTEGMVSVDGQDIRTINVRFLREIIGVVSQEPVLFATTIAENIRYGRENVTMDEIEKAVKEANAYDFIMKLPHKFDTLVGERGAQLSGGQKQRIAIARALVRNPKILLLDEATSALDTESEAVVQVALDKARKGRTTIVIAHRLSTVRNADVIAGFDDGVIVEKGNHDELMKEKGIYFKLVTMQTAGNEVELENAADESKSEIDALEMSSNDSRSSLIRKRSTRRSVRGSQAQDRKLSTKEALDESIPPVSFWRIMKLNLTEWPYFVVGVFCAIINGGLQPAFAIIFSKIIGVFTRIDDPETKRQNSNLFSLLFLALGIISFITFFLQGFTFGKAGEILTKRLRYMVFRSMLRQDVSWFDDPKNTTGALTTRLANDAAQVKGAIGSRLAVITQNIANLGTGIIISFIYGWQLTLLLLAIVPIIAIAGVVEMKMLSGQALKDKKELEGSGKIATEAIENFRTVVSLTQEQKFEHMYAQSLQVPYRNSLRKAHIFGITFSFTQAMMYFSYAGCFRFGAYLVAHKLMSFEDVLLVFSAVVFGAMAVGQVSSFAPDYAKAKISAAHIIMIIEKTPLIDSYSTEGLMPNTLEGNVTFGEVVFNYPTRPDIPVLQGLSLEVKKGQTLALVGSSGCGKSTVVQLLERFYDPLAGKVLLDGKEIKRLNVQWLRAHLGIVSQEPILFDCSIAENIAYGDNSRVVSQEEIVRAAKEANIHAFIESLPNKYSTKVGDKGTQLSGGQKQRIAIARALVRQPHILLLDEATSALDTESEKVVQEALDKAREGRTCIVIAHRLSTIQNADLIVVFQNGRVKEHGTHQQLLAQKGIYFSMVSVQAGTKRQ

Turning to `CC(=O)O[C@H]1C(=O)[C@@]2(C)[C@H]([C@H](OC(=O)c3ccccc3)[C@]3(O)C[C@H](OC(=O)[C@H](O)[C@@H](NC(=O)c4ccccc4)c4ccccc4)C(C)=C1C3(C)C)[C@]1(OC(C)=O)CO[C@@H]1C[C@@H]2O` [paclitaxel], the “[3H]-paclitaxel accumulation and efflux in KB-C2 versus parental KB-3-1 cells” value at ABCB1 [1] was “NVP-CGM097 can block the efflux activity of ABCB1-overexpressing cells, therefore, increasing intracellular paclitaxel accumulation”.

As for `COc1cc2c(cc1OC(C)C)[C@H](c1ccc(Cl)cc1)N(c1ccc(N(C)C[C@H]3CC[C@H](N4CCN(C)C(=O)C4)CC3)cc1)C(=O)C2` [NVP-CGM097], the negative-log EC50 (pEC50) at ABCB1 [2] was 6.35.
